“Also recorded” adds a separate entry of the source.
What was measured:
[1] = test system: gap junction coupling in HUVEC; test: Multiparametric scrape loading-dye transfer assay (Lucifer Yellow spread); type: cell-based, human; settings: for LY spread after scratch wounding: 60 min pre-treatment, PMA 100 nM or 18ßGRR 100 µM, 15 min post-scratch; for LY spread in the absence of ionomycin stimulation: peptide 7 µM and 17.9 µM, 8 min pre-treatment + 8 min assay; for LY spread in the absence of ionomycin stimulation / LY spread after ionomycin pre-treatment in the presence of peptide: Ca2+-containing media; for LY spread after ionomycin pre-treatment in the presence of peptide: peptide 7 μM and 17.9 μM, 8 min + 8 min
Method: (§1) The assay is described in detail in [48]; it is an adaption of the traditional fluorescence microscopy-based scrape loading dye transfer (sl-dt) technique. Briefly, HUVEC in 24 well trays were rinsed into +Ca+Mg-PBS. The solution was then replaced with fresh +Ca+Mg-PBS supplemented with Lucifer Yellow (LY; 1 mg/mL), propidium iodide (PI; 15 μM) and Hoechst 33,342 (90 μM) (dye transfer buffer). Immediately after addition of the dye transfer buffer, 3 parallel cuts in the cell monolayer in the central part of each well in the 24 wells were made using a micro scalpel knife with a flat edge stainless steel blade. The cells were then incubated at 37 °C for 8 or 15 min, as specified, before being washed twice with +Ca+Mg-PBS to remove the dye transfer buffer and then fixed in 3% PFA in PBS. Fresh dye transfer buffer was used for each experiment and the plates were stored in the dark at 4 °C.
For quantitative analysis of dye transfer and cell viability, images were acquired from 2 to 3 regions within each cut (6–9 measurements per well) using an EVOS M5000 microscope (Invitrogen, Waltham, MA, USA) equipped with a 10 × 0.3 NA air objective and EVOS LED light cubes for bright field imaging, FITC, RedX and DAPI. Images were acquired sequentially and exported to ImageJ for processing.
Phorbol 12-myristate 13-acetate (PMA) or 18-β-glycyrrhetinic acid (18BGRR) was made up in dimethysulphoxide (DMSO) to a 10 mM or 50 mM stock, respectively, and diluted into HGM to a final concentration of 100 nM or 100 µM, respectively. Cells were incubated in PMA or 18BGRR acid containing solution for 60 min at 37 °C. The PMA or 18BGRR solution was then carefully removed and the cells were washed once in +Ca+Mg-PBS. The PBS was then replaced with the dye transfer buffer (see above) and immediately 3 parallel cuts were made in the cell monolayer in the central part of each well using a micro scalpel knife with a flat edge stainless steel blade. For each experiment drug treatments were carried out in triplicate wells each with 3 cuts per well. Cells were then processed as described above. For analysis of the Ca^2+ dependency of gap junction coupling, HUVEC were incubated in either +Ca+Mg-PBS (+Ca) or -Ca+Mg +0.2 mM EGTA (-Ca) containing PBS and stimulated with vehicle (0.001% DMSO), or 2 μM ionomycin for 8 min. Cells were then transferred to dye transfer buffer made using +Ca or −Ca PBS, supplemented with vehicle or 2 μM ionomycin, and 3 parallel cuts were made in cell monolayers in each well. Cells were incubated for a further 8 min prior to fixation. […] A stock solution of 3.6 mM was made to generate working concentrations of 6–18 µM.
Data analysis was carried out in the open-source-based software program Fiji ImageJ. A custom-made macro (Cut_Analyzer.ijm) published in the Supplementary Materials to [48] was used for the automated quantitation of gap junction intercellular communication using images acquired for the LY signal. Analysis of total cell number (Hoechst channel) and cell viability (propidium iodide channel) was made using custom made macros ([48] and Supplementary Methods).

HUVEC [2] = test: Cell viability (PI+ cells) in dye transfer assay; type: cell-based; settings: PMA 100 nM or 18ßGRR 100 µM, 60 min; % of PI+ cells
Method: as §1, with “The cells were then incubated at 37 °C for 8 or 15 min, as specified, before being washed twice with +Ca+Mg-PBS to remove the dye transfer buffer and then fixed in 3% PFA in PBS. Fresh dye transfer buffer was used for each experiment and the plates were stored in the dark at 4 °C.” left out
Data analysis was carried out in the open-source-based software program Fiji ImageJ. A custom-made macro (Cut_Analyzer.ijm) published in the Supplementary Materials to [48] was used for the automated quantitation of gap junction intercellular communication using images acquired for the LY signal. […]
Analysis of cell number. To determine the number of cells per field of view we counted the number of Hoechst stained nuclei using a simple macro (Nuclei count.ijm) recorded […]
Counting cell nuclei using Fiji ImageJ. […] Images were then converted to a mask, a Watershed applied to identify and separate overlapping nuclei and objects counted using the Analyze particles function. […]
Analysis of cell viability. […] Cell viability was expressed as the fraction of cells negative for PI. […]

CaM = CaM binding signals of Cx32 CT peptide
apo-DA-CaM = apo-DA-CaM (Homo sapiens, UniProt P0DP23, T111C/T35C); test: Stopped-flow association and dissociation kinetics with apo-DA-CaM (with and without 15% TFE); settings: 500 nM DA-CaM with 10 µM mTrp, 5 mM EGTA, mixed with 300 µM CaM, 20 °C
Method: We were interested to see if we can detect apo-CaM binding to Cx CL2 peptides using DA-CaM, the conformation of which is insensitive to [Ca^2+] changes, but which indicates changes in the distance between the N- and C-lobe with high sensitivity.
The kinetics of Ca^2+/DA-CaM and DA-CaM interactions with Cx CL2 peptides was measured using a TgK Scientific KinetAsyst™ double-mixing stopped-flow apparatus (TgK Scientific Ltd., Bradford-on-Avon, UK) in single mixing mode. The fluorescence was excited at 340 nm and the emission was detected by a photomultiplier tube with a long pass filter (>400 nm). […] All concentrations given are those in the mixing chamber. Data shown are averages of 3 to 5 repeats. All experiments were carried out at 20 °C. Data were analysed using Kinetic Studio software (TgK Scientific Ltd., Bradford-on-Avon, UK).

TA-CaM = TA-CaM (Homo sapiens, UniProt P0DP23); settings: Ca2+ titration of TA-CaM alone or with peptide
Method: The binding curves were fitted to the Hill equation to obtain Kd and Hill coefficient values (n) (Table 2).
The fluorescence was corrected for dilution and [Ca^2+] concentration was calculated using Maxchelator software. The data were fitted to the Hill equation with specific binding (y = Bmax∗x^n/(Kd^n + x^n)) using GraphPad Prism 9.

HUVEC [3] = test: Fura-2 epifluorescence imaging of [Ca2+]i; type: cell-based, human; settings: ionomycin 2 µM, fura-2 loaded HUVEC
Method: HUVEC were grown on 24 mm square uncoated glass coverslips in growth medium. For Fura-2 loading, the cells were transferred into Hanks solution (140 mM NaCl, 5 mM KCl, 1.8 mM CaCl2, 2 mM MgCl2, 10 mM glucose, 10 mM HEPES-NaOH pH 7.4) supplemented with 2.5 µM Fura-2AM (Molecular Probes, Eugene, Oregon, USA) diluted from a stock solution of 5 mM Fura-2AM in DMSO with 2.0% Pluoronic F-127. Cells were incubated at room temperature in the dark for 20 min before being transferred into fresh Hanks solution and further maintained in the dark at RT until use. Cells were transferred to the stage of an Olympus IX71 inverted fluorescence microscope and maintained at 32–34 °C. The imaging system comprised an excitation monochromator (Optoscan, Cairn Research), U-Plan-Apo ×100 1.35 NA objective and an Ixon EMCCD camera (Andor). Fura-2 was illuminated sequentially with 355 ± 5 nm and 380 ± 5 nm light and wavelength switching synchronised with image capture using WinFluor software (Dr John Dempster, Strathclyde University). The EMCCD camera was operated in frame transfer mode at full gain and cooled to −70 °C. Full frame (512 by 512 pixels) images were acquired at 30 frames/s. Ionomycin was applied by droplet application.

Row | Compound | LY spread after scratch wounding [1] | Cell viability following drug treatments (HUVEC [2]) | LY spread in the absence of ionomycin stimulation [1] | LY spread after ionomycin pre-treatment in the presence of peptide ([1]; ionomycin 2 µM) | further results
1 | CCCCCCCCCCCCCC(=O)O[C@@H]1[C@@H](C)[C@@]2(O)[C@@H](C=C(CO)C[C@]3(O)C(=O)C(C)=C[C@@H]23)[C@@H]2C(C)(C)[C@]12OC(C)=O [PMA, 12-phorbol 13-myristate acetate] | significantly reduced LY spread | No evidence for decreased cell viability | – | – | –
2 | EINKLLSEQDGSLKDILRRS [Cx32 CT peptide] | – | – | – | – | CaM binding signal (CaM): unable to detect any signals indicating CaM binding
3 | CC1(C)[C@@H](O)CC[C@]2(C)[C@H]3C(=O)C=C4[C@@H]5C[C@@](C)(C(=O)O)CC[C@]5(C)CC[C@@]4(C)[C@]3(C)CC[C@@H]12 [18ßGRR, 18-β-glycyrrhetinic acid] | significantly reduced LY spread | No evidence for decreased cell viability | – | – | –
4 | N-[myr]-RRKEQKTGHAVRAIGRE-amide [control peptide] | – | – | no significant difference in LY spread | significantly reduced LY spread | –
5 | N-[myr]-RRKWQKTGHAVRAIGRL-amide [mTrp] | – | – | no significant difference in LY spread | reduced the inhibition of LY spread; also recorded: prevented the Ca^2+-induced block | Dissociation from apo-DA-CaM, fast phase (apo-DA-CaM): 130 s⁻¹; Dissociation from apo-DA-CaM, slow phase (apo-DA-CaM): 0.9 s⁻¹; Hill Coefficient n TA-CaM (TA-CaM): 1.3 ± 0.1
6 | C[C@H](CCC(=O)O)C[C@H](C)C[C@H](C)C(=O)/C=C(\O)[C@H](C)C[C@H](C)C/C=C/[C@@H](C)[C@@H](O)[C@@H](C)[C@@H](O)C[C@@H]1CC[C@@](C)([C@H]2CC[C@@](C)([C@@H](C)O)O2)O1 [ionomycin] | – | – | – | – | Effect on LY spread when external Ca^2+ omitted ([1]; ionomycin 2 µM, 8 min, external Ca2+ omitted): greatly reduced; LY spread after scratch formation ([1]; ionomycin 2 µM, 8 min pre-treatment, external Ca2+ present, 8 min LY spread): significantly reduced the spread of LY; also recorded: completely blocked; Change in [Ca^2+]i (fura-2 ratio) (HUVEC [3]): initial fast increase in [Ca^2+]i
